# Results: ChEMBL document CHEMBL5500346, “Targeting EGFR degradation by autophagosome degraders” (Eur J Med Chem, 2024)
# Active and inactive are the calls of the source.
# How the values were obtained:
# HCC827 = experiment: Antiproliferative activity against human HCC827 cells incubated for 72 hrs by CCK8 assay; assay type: functional, cell-based; details: HCC827, 72 h
# A549 = experiment: Antiproliferative activity against human A549 cells incubated for 72 hrs by CCK8 assay; assay type: functional, cell-based; details: A549, 72 h
# [1] = target: T1, Microtubule-associated protein 1 light chain 3 beta/Epidermal growth factor receptor (Homo sapiens, UniProt P00533+Q9GZQ8); experiment: ATTEC activity at LC3B/EGFR in human HCC827 cells assessed as protein degradation at 0.33 uM by immunoblot analysis relative to control; assay type: cell-based
# NCI-H1975 = experiment: Antiproliferative activity against human NCI-H1975 cells incubated for 72 hrs by CCK8 assay; assay type: functional, cell-based; details: NCI-H1975, 72 h
# [2] = target: T1, Microtubule-associated protein 1 light chain 3 beta/Epidermal growth factor receptor; experiment: ATTEC activity at LC3B/EGFR in human HCC827 cells assessed as protein degradation by immunoblot analysis; assay type: cell-based
# L02 = experiment: Antiproliferative activity against human HL7702 cells incubated for 72 hrs by CCK8 assay; assay type: toxicity, cell-based; details: l02, 72 h
# PC-9 [3] = experiment: Antiproliferative activity against human PC-9 cells incubated for 72 hrs by CCK8 assay; assay type: functional, cell-based; details: PC-9, 72 h
# NCI-H3255 = experiment: Antiproliferative activity against human NCI-H3255 cells incubated for 72 hrs by CCK8 assay; assay type: functional, cell-based; details: NCI-H3255, 72 h
# PC-9 [4] = experiment: Antiproliferative activity against Gefitinib-resistant human PC-9 cells incubated for 72 hrs by CCK8 assay; assay type: functional, cell-based
# [5] = target: T1, Microtubule-associated protein 1 light chain 3 beta/Epidermal growth factor receptor; experiment: ATTEC activity at LC3B/EGFR in human HCC827 cells assessed as protein degradation at 3.3 uM by immunoblot analysis relative to control; assay type: cell-based
# [6] = target: T1, Microtubule-associated protein 1 light chain 3 beta/Epidermal growth factor receptor; experiment: ATTEC activity at LC3B/EGFR in human HCC827 cells assessed as increase in density of lysosomes incubated for 4 hrs by LysoTracker Red staining based analysis; assay type: cell-based
# [7] = target: T1, Microtubule-associated protein 1 light chain 3 beta/Epidermal growth factor receptor; experiment: Binding affinity to biotinylated LC3B/EGFR in human HCC827 cells assessed as dissociation constant BLI assay; assay type: cell-based
# [8] = target: T1, Microtubule-associated protein 1 light chain 3 beta/Epidermal growth factor receptor; experiment: Binding affinity to biotinylated LC3B/EGFR in human HCC827 cells BLI assay; assay type: cell-based
# [9] = target: T1, Microtubule-associated protein 1 light chain 3 beta/Epidermal growth factor receptor; experiment: ATTEC activity at LC3B/EGFR in human HCC827 cells assessed as protein degradation at 0.11 uM by immunoblot analysis relative to control; assay type: cell-based
# PC-9 [10] = experiment: In vivo ATTEC activity at LC3B/EGFR in human PC-9 cells implanted in NOD-SCID mouse assessed as protein degradation at 20 mg/kg, ip measured after 24 hrs by Western blot analysis; assay type: functional, organism-based
IC50 (HCC827) [µM],IC50 (A549) [µM],Emax [1] [%],IC50 (NCI-H1975) [µM],DC50 [2] [µM],IC50 (PC-9 [3]) [µM],IC50 (NCI-H3255) [µM],Emax [5] [%],Activity [6],Kd [7] [µM],Activity [8],Emax [9] [%],SMILES,Activity (L02),Activity (PC-9 [4]),Activity (PC-9 [10])
> 10,> 10,9.1,> 10,> 10,7.72,4.85,–,–,–,–,–,COc1cc2ncnc(Nc3ccc(F)c(Cl)c3)c2cc1OCCOCCOCCOCCNC(=O)COc1c(Br)cc(/C=C2\C(=O)Nc3ccc(Cl)cc32)cc1Br,Non-Toxic,–,–
2.78,> 10,–,> 10,3.62,11.1,4.79,–,–,–,–,–,COc1cc2ncnc(Nc3ccc(F)c(Cl)c3)c2cc1OCCOCCOCCNC(=O)COc1c(Br)cc(/C=C2\C(=O)Nc3ccc(I)cc32)cc1Br,Non-Toxic,–,–
0.937,> 10,–,> 10,> 10,3.78,1.13,–,–,–,–,–,COc1cc2ncnc(Nc3ccc(F)c(Cl)c3)c2cc1OCCOCCOCCOCCNC(=O)COc1c(Br)cc(/C=C2\C(=O)Nc3ccc(C)cc32)cc1Br,Non-Toxic,Active,–
1.72,> 10,–,> 10,> 10,1.09,1.43,26,–,–,–,–,COc1cc2ncnc(Nc3ccc(F)c(Cl)c3)c2cc1OCCOCCOCCOCCNC(=O)COc1c(Br)cc(/C=C2\C(=O)Nc3ccccc32)cc1Br,Non-Toxic,Active,–
1.72,> 10,–,> 10,> 10,3.53,2.46,–,–,–,–,–,COc1cc2ncnc(Nc3ccc(F)c(Cl)c3)c2cc1OCCOCCNC(=O)COc1c(Br)cc(/C=C2\C(=O)Nc3ccc(C)cc32)cc1Br,Non-Toxic,Active,–
5.87,> 10,–,> 10,0.94,> 10,4.58,–,–,–,–,–,COc1cc2ncnc(Nc3ccc(F)c(Cl)c3)c2cc1OCCOCCNC(=O)COc1c(Br)cc(/C=C2\C(=O)Nc3ccc(Cl)cc32)cc1Br,Non-Toxic,Active,–
0.21,> 10,–,> 10,> 10,> 10,6.04,5.8,–,–,–,–,COc1cc2ncnc(Nc3ccc(F)c(Cl)c3)c2cc1OCCCCNC(=O)COc1c(Br)cc(/C=C2\C(=O)Nc3ccc(I)cc32)cc1Br,Non-Toxic,–,–
1.16,> 10,–,> 10,4.38,3.63,0.904,–,Active,2.2,Active,–,COc1cc2ncnc(Nc3ccc(F)c(Cl)c3)c2cc1OCCOCCNC(=O)COc1c(Br)cc(/C=C2\C(=O)Nc3ccccc32)cc1Br,Non-Toxic,–,–
> 10,> 10,–,> 10,> 10,> 10,> 10,–,–,–,–,–,COc1cc2ncnc(Nc3ccc(F)c(Cl)c3)c2cc1OCCCCCCNC(=O)COc1c(Br)cc(/C=C2\C(=O)Nc3ccc(I)cc32)cc1Br,Non-Toxic,–,–
1.15,> 10,–,> 10,5.81,6.76,4.14,–,–,–,–,–,COc1cc2ncnc(Nc3ccc(F)c(Cl)c3)c2cc1OCCOCCOCCOCCOCCNC(=O)COc1c(Br)cc(/C=C2\C(=O)Nc3ccc(I)cc32)cc1Br,Non-Toxic,–,–
0.976,> 10,–,> 10,> 10,> 10,4.93,–,–,–,–,–,COc1cc2ncnc(Nc3ccc(F)c(Cl)c3)c2cc1OCCCCCCCCCCNC(=O)COc1c(Br)cc(/C=C2\C(=O)Nc3ccc(I)cc32)cc1Br,Non-Toxic,–,–
0.923,> 10,–,> 10,6.42,7.04,3.41,–,–,–,–,–,COc1cc2ncnc(Nc3ccc(F)c(Cl)c3)c2cc1OCCOCCOCCOCCNC(=O)C(C)Oc1c(Br)cc(/C=C2\C(=O)Nc3ccc(I)cc32)cc1Br (stereo not given),Non-Toxic,Active,–
> 10,> 10,–,> 10,> 10,> 10,5.18,–,–,–,–,–,COc1cc2ncnc(Nc3ccc(F)c(Cl)c3)c2cc1OCCOCCNC(=O)COc1c(Br)cc(/C=C2\C(=O)Nc3ccc(Br)cc32)cc1Br,Non-Toxic,Active,–
2.19,> 10,–,> 10,> 10,> 10,6.5,–,–,–,–,9.1,COc1cc2ncnc(Nc3ccc(F)c(Cl)c3)c2cc1OCCCCCCCCNC(=O)COc1c(Br)cc(/C=C2\C(=O)Nc3ccc(I)cc32)cc1Br,Non-Toxic,–,–
6.03,> 10,–,> 10,8.49,3.81,2,–,–,–,–,–,COc1cc2ncnc(Nc3ccc(F)c(Cl)c3)c2cc1OCCOCCOCCNC(=O)COc1c(Br)cc(/C=C2\C(=O)Nc3ccc(Cl)cc32)cc1Br,Non-Toxic,Active,–
1.06,> 10,–,> 10,> 10,3.12,2.84,–,–,–,–,–,COc1cc2ncnc(Nc3ccc(F)c(Cl)c3)c2cc1OCCOCCOCCNC(=O)COc1c(Br)cc(/C=C2\C(=O)Nc3ccc(Br)cc32)cc1Br,Non-Toxic,Active,–
–,–,–,–,–,–,–,–,–,–,–,–,COc1cc2ncnc(Nc3ccc(F)c(Cl)c3)c2cc1OCCCN1CCOCC1,–,–,inactive
1.15,> 10,–,3.18,> 10,1.43,0.908,–,–,–,–,–,COc1cc2ncnc(Nc3ccc(F)c(Cl)c3)c2cc1OCCOCCOCCNC(=O)COc1c(Br)cc(/C=C2\C(=O)Nc3ccccc32)cc1Br,Non-Toxic,Active,–
3.84,> 10,–,> 10,2.77,5.12,2.54,–,–,–,–,–,COc1cc2ncnc(Nc3ccc(F)c(Cl)c3)c2cc1OCCOCCOCCOCCNC(=O)COc1c(Br)cc(/C=C2\C(=O)Nc3ccc(Br)cc32)cc1Br,Non-Toxic,Active,–
1.28,> 10,20.2,> 10,> 10,7.96,3.1,–,–,–,–,–,COc1cc2ncnc(Nc3ccc(F)c(Cl)c3)c2cc1OCCOCCNC(=O)COc1c(Br)cc(/C=C2\C(=O)Nc3ccc(I)cc32)cc1Br,Non-Toxic,–,–
0.862,> 10,–,> 10,> 10,1.36,1.83,–,–,–,–,–,COc1cc2ncnc(Nc3ccc(F)c(Cl)c3)c2cc1OCCOCCOCCNC(=O)COc1c(Br)cc(/C=C2\C(=O)Nc3ccc(C)cc32)cc1Br,Non-Toxic,Active,–
